Experimental data reported in ChEMBL document CHEMBL2331143, “Antiparkinsonian activity of some 9-N-, O-, S- and C-derivatives of 3-methyl-6-(prop-1-en-2-yl)cyclohex-3-ene-1,2-diol” (2013).

Tests used:
Type in all cases: functional
Mus musculus [1] = assay: Antiparkinsonian activity in MPTP C57Bl/6 mouse model assessed as immobility time at 20 mg/kg, po administered 24 hrs loast last dose of MPTP measured after 2 hrs post compound dose by open field test relative to saline-treated control
Mus musculus [2] = assay: Antiparkinsonian activity in MPTP C57Bl/6 mouse model assessed as movement speed at 20 mg/kg, po administered 24 hrs loast last dose of MPTP measured after 2 hrs post compound dose by open field test relative to saline-treated control
Mus musculus [3] = assay: Antiparkinsonian activity in MPTP C57Bl/6 mouse model assessed as movement distance at 20 mg/kg, po administered 24 hrs loast last dose of MPTP measured after 2 hrs post compound dose by open field test relative to saline-treated control
Mus musculus [4] = assay: Antiparkinsonian activity in MPTP C57Bl/6 mouse model assessed as time of locomotor activity at 20 mg/kg, po administered 24 hrs loast last dose of MPTP measured after 2 hrs post compound dose by open field test relative to saline-treated control

C=C(C)[C@@H]1CC=C(C)[C@@H](O)[C@@H]1O
Time (Mus musculus [1]): 50.8 s
Activity (Mus musculus [2]): 2.6 cm/s
Activity (Mus musculus [3]): 302 cm
Time (Mus musculus [4]): 69.2 s

C=C(CSCCC)[C@@H]1CC=C(C)[C@@H](O)[C@@H]1O
Time (Mus musculus [1]): 58.6 s
Activity (Mus musculus [2]): 2.6 cm/s
Activity (Mus musculus [3]): 317.6 cm
Time (Mus musculus [4]): 61.4 s

C=C1CO[C@H]2[C@H](O)C(C)=CC[C@@H]12
Time (Mus musculus [1]): 73.4 s
Activity (Mus musculus [2]): 1.7 cm/s
Activity (Mus musculus [3]): 214 cm
Time (Mus musculus [4]): 46.6 s

C=C(CCCCC)[C@@H]1CC=C(C)[C@@H](O)[C@@H]1O
Time (Mus musculus [1]): 56.8 s
Activity (Mus musculus [2]): 2.7 cm/s
Activity (Mus musculus [3]): 335.2 cm
Time (Mus musculus [4]): 63.2 s

C=C(CNC1C2CC3CC(C2)CC1C3)[C@@H]1CC=C(C)[C@@H](O)[C@@H]1O (stereo not given in full)
Time (Mus musculus [1]): 85.2 s
Activity (Mus musculus [2]): 1.2 cm/s
Activity (Mus musculus [3]): 149.7 cm
Time (Mus musculus [4]): 34.8 s

C=C(CNCCN(C)C)[C@@H]1CC=C(C)[C@@H](O)[C@@H]1O
Time (Mus musculus [1]): 68.8 s
Activity (Mus musculus [2]): 1.8 cm/s
Activity (Mus musculus [3]): 225 cm
Time (Mus musculus [4]): 51.2 s

C=C(CN1C(=O)c2ccccc2C1=O)[C@@H]1CC=C(C)[C@@H](O)[C@@H]1O
Time (Mus musculus [1]): 61.7 s
Activity (Mus musculus [2]): 2.3 cm/s
Activity (Mus musculus [3]): 280 cm
Time (Mus musculus [4]): 58.3 s

C=C(CN1CCOCC1)[C@@H]1CC=C(C)[C@@H](O)[C@@H]1O
Time (Mus musculus [1]): 71.5 s
Activity (Mus musculus [2]): 1.7 cm/s
Activity (Mus musculus [3]): 215.3 cm
Time (Mus musculus [4]): 48.5 s

C=C(CO)[C@@H]1CC=C(C)[C@@H](O)[C@@H]1O
Time (Mus musculus [1]): 80 s
Activity (Mus musculus [2]): 1.5 cm/s
Activity (Mus musculus [3]): 182.1 cm
Time (Mus musculus [4]): 37.2 s

C=C(CN)[C@@H]1CC=C(C)[C@@H](O)[C@@H]1O
Time (Mus musculus [1]): 66.5 s
Activity (Mus musculus [2]): 2 cm/s
Activity (Mus musculus [3]): 248.6 cm
Time (Mus musculus [4]): 53.5 s
